Test results published in ChEMBL document CHEMBL1201862, “PubChem BioAssay data set” (2004).
Where “and” joins values, the source holds several entries; their conditions need not be identical. Equal entries are not always repeated. Calls of active or inactive are those of the source.

How the values were obtained:
[1] = target: Ras and Rab interactor 1/Tyrosine-protein kinase ABL1 (Homo sapiens, UniProt P00519+Q13671); assay type: functional;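 note: biochemical TR-FRET dose-response test measuring inhibition of binding between Rin1 and Abl proteins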
Ras and Rab interactor 1/Tyrosine-protein kinase ABL1, sequence (P00519 whole entry): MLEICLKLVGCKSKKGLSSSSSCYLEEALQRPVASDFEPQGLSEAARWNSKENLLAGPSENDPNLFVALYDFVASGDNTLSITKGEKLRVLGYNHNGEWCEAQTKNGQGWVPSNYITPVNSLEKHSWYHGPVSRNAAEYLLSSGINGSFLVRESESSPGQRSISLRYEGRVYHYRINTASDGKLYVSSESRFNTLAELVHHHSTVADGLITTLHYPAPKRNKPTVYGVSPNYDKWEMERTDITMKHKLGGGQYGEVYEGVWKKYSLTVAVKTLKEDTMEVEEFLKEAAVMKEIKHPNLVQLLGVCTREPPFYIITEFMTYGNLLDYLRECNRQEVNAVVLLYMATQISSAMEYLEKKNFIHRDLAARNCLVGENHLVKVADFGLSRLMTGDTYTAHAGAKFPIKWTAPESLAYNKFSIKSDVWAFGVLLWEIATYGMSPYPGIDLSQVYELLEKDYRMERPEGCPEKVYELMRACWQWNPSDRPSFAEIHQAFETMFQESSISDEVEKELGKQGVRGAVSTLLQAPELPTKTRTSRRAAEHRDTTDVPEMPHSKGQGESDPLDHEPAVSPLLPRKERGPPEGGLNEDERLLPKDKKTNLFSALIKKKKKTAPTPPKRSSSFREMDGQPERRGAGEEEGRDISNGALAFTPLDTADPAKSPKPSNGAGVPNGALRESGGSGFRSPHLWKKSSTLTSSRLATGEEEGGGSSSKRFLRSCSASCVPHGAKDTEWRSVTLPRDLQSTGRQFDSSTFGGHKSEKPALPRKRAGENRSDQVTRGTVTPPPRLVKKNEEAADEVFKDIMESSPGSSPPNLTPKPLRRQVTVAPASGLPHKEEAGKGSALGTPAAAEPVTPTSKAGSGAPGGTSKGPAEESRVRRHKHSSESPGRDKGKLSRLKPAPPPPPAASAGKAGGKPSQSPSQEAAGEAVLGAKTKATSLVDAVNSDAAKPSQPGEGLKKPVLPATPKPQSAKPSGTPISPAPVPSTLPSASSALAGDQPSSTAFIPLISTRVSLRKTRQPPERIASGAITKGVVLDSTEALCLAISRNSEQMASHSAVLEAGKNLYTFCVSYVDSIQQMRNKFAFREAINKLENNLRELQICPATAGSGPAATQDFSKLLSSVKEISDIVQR
Ras and Rab interactor 1/Tyrosine-protein kinase ABL1, sequence (Q13671 whole entry): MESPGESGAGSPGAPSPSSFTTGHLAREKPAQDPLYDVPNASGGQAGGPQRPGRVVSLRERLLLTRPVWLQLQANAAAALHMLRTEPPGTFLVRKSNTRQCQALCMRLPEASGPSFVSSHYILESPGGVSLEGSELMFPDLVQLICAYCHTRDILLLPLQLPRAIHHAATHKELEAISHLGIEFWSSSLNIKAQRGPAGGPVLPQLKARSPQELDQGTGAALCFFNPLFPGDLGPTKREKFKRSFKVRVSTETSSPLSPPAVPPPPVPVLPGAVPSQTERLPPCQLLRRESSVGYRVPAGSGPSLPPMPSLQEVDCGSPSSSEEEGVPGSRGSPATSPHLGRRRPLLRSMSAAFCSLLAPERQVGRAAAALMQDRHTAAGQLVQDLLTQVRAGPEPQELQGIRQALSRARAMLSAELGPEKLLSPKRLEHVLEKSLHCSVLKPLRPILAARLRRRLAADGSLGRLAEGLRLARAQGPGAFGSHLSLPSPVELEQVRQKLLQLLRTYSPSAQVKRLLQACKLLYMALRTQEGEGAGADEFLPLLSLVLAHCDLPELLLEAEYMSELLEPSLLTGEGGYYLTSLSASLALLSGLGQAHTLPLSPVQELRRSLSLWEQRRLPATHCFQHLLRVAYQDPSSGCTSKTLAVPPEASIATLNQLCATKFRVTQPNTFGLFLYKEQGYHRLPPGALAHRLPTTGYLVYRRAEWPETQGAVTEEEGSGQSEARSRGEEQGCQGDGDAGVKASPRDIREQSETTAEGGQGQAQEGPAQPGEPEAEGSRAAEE

Insulin-degrading enzyme [2] = target: T1, Insulin-degrading enzyme (Homo sapiens, UniProt P14735); experiment: activators of recombinant IDE enzyme, dose response, counter-screen for IDE activator project, biochemical, fluorescence polarization (AID 588681)
T1 sequence (P14735 whole entry): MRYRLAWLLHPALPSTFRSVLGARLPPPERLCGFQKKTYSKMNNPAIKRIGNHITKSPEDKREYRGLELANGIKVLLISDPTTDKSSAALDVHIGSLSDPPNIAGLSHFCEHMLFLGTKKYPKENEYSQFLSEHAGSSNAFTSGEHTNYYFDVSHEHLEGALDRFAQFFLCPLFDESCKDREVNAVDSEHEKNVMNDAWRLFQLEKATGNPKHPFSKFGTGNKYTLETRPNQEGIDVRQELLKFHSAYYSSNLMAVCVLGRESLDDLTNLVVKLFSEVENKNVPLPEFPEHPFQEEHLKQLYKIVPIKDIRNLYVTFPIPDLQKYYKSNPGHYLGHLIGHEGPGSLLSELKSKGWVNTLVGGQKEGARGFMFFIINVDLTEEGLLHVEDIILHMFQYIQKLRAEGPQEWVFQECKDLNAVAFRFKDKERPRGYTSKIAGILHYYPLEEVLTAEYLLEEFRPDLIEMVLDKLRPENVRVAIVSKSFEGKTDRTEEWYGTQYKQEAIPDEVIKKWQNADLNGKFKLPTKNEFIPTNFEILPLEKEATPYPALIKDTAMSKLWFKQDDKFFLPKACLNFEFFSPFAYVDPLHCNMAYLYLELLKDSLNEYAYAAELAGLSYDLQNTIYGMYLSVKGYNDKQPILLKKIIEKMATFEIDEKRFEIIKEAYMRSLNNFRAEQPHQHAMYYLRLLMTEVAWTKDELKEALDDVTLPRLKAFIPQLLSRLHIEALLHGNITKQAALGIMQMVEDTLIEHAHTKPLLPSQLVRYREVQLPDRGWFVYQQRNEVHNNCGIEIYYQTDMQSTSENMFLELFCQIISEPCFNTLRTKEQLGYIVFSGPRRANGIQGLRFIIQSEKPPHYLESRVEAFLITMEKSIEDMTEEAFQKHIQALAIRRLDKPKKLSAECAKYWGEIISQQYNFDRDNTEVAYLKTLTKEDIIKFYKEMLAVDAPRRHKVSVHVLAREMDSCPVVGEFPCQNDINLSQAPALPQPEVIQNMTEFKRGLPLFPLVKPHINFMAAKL

Insulin-degrading enzyme [3] = target: T1, Insulin-degrading enzyme; experiment: activators of endogenous IDE in HEK cells, dose response, cell-based, fluorescence polarization (AID 588439); assay type: functional
HEK293 [4] = experiment: HEK cell cytotoxicity by LDH release, dose response, cytotoxicity control for IDE activator project, fluorescence, HEK cells (AID 588440); assay type: functional, cell-based; conditions: Homo sapiens;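 note: cytotoxicity by LDH release measuring loss of membrane integrity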
HEK293 [5] = experiment: optical interference in Abeta FP readout, dose response, artefact control for IDE activator project, biochemical, fluorescence polarization (AID 588442); assay type: functional, cell-based; conditions: Homo sapiens
[6] = target: Dual specificity tyrosine-phosphorylation-regulated kinase 1B (Homo sapiens, UniProt Q9Y463); experiment: Navigating the Kinome. Panel member name: DYRK1B; assay type: functional
Dual specificity tyrosine-phosphorylation-regulated kinase 1B, sequence (Q9Y463 whole entry): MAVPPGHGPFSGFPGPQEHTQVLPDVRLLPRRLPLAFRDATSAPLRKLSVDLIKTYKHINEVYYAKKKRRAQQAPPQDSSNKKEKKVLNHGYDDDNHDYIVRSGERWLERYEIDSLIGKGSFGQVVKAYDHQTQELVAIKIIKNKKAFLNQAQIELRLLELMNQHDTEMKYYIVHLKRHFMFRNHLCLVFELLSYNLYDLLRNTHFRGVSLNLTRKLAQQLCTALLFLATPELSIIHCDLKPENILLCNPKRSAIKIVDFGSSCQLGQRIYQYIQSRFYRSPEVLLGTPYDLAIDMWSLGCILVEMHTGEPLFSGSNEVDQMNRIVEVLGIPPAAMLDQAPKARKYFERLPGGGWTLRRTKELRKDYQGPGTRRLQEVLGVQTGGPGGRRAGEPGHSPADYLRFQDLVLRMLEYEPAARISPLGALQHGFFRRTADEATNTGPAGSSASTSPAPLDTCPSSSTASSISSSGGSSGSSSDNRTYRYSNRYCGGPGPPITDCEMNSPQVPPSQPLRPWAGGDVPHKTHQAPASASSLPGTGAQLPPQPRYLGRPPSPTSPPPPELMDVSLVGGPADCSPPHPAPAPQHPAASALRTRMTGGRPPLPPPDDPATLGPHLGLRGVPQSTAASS

[7] = target: Serine/threonine-protein kinase 3 (Homo sapiens, UniProt Q13188); assay type: functional;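 note: measured as one member of a kinome-wide kinase panel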
Serine/threonine-protein kinase 3, sequence (Q13188 whole entry): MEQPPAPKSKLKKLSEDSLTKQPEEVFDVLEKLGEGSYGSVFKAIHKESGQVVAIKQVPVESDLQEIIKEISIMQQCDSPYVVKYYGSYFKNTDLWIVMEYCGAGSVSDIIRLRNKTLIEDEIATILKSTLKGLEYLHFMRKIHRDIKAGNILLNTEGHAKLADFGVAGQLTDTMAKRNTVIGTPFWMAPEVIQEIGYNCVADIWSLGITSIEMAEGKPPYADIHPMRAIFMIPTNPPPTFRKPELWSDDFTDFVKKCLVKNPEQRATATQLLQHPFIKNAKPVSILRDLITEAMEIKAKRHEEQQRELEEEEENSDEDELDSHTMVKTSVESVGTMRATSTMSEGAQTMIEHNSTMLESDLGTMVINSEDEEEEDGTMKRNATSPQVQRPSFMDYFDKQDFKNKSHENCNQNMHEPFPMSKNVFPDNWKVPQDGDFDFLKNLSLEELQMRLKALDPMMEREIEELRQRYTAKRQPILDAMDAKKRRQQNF

[8] = THP-1 cell cytotoxicity, cytotoxicity control, set 4 (AID 504911); assay type: functional; conditions: Mycobacterium tuberculosis
[9] = THP-1 cell cytotoxicity, dose response, cytotoxicity control, set 3 (AID 504852); assay type: functional; conditions: Mycobacterium tuberculosis
[10] = Vero cell cytotoxicity, dose response, cytotoxicity control for M. tuberculosis growth inhibitor project, Vero cells, purified and synthesized compounds, set 4 (AID 504854); assay type: functional; conditions: Mycobacterium tuberculosis
[11] = target: T2, Apoptotic protease-activating factor 1 (Homo sapiens, UniProt O14727); experiment: SAR analysis of small molecule Activators of Apaf-1 in a Fluorescent assay.; assay type: functional; conditions: read-out: EC50_Mean;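 note: caspase-3 cleavage of fluorogenic Rh110 DEVD substrate downstream of apoptosome activation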
T2 sequence (O14727 whole entry): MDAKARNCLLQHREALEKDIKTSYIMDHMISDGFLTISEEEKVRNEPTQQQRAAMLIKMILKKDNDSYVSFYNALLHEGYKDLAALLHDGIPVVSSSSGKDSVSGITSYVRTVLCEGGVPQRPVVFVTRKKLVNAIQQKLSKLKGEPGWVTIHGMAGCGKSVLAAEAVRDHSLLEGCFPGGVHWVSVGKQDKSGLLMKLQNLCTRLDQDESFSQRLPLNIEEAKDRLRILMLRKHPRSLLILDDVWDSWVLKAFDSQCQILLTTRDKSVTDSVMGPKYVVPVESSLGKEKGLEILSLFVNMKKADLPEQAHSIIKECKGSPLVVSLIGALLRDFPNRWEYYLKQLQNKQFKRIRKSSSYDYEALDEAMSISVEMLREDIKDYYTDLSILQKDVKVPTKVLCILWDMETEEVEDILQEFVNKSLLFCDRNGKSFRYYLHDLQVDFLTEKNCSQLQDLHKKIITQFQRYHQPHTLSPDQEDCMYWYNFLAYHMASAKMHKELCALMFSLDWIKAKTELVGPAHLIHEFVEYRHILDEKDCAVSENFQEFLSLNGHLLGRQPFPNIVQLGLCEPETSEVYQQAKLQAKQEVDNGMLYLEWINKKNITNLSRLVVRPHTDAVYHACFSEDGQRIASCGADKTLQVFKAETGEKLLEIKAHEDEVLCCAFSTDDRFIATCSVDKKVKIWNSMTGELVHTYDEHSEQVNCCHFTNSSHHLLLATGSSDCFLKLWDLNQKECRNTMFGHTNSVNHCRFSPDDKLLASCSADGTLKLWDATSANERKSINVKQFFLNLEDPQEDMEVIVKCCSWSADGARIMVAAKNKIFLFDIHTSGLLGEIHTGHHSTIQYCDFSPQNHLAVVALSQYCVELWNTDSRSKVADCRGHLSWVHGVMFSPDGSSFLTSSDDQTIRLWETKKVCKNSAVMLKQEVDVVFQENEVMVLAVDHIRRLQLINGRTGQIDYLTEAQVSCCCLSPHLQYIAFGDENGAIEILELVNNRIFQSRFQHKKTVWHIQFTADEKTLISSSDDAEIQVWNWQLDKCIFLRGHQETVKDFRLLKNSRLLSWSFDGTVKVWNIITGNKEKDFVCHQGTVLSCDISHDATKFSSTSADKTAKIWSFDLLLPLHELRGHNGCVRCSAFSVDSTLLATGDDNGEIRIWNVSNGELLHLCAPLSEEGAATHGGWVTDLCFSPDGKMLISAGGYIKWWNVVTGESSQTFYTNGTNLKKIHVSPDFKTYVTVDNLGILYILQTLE

[12] = target: DNA dC->dU-editing enzyme APOBEC-3G (Homo sapiens, UniProt Q9HC16); experiment: APOBEC3G deaminase inhibitors, SAR follow-up, biochemical, fluorescence, single-stranded DNA substrate (AID 602136); assay type: functional; conditions: read-out: IC50_Mean
DNA dC->dU-editing enzyme APOBEC-3G, sequence (Q9HC16 whole entry): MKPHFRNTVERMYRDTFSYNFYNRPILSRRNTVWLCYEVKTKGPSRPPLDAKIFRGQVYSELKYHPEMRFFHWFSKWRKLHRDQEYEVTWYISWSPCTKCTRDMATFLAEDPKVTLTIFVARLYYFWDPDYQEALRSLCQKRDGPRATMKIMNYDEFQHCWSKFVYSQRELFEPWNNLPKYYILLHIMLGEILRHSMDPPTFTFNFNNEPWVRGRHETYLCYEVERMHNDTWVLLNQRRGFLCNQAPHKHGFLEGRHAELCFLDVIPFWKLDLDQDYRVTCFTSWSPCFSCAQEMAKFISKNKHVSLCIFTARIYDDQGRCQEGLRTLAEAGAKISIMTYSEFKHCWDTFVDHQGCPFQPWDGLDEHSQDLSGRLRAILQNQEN

[13] = target: DNA dC->dU-editing enzyme APOBEC-3A (Homo sapiens, UniProt P31941); experiment: SAR analysis of small molecule inhibitors of APOBEC3A DNA Deaminase via a fluorescence-based single-stranded DNA deaminase assay.; assay type: functional; conditions: read-out: IC50_Mean
DNA dC->dU-editing enzyme APOBEC-3A, sequence (P31941 whole entry): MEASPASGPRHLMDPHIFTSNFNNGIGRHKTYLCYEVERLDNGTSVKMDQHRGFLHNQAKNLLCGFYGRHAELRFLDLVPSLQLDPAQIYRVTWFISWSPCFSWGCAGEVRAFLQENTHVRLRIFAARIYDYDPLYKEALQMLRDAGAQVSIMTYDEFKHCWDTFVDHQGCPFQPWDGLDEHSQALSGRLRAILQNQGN

[14] = target: Serine/threonine-protein kinase PLK3 (Homo sapiens, UniProt Q9H4B4); assay type: functional
Serine/threonine-protein kinase PLK3, sequence (Q9H4B4 whole entry): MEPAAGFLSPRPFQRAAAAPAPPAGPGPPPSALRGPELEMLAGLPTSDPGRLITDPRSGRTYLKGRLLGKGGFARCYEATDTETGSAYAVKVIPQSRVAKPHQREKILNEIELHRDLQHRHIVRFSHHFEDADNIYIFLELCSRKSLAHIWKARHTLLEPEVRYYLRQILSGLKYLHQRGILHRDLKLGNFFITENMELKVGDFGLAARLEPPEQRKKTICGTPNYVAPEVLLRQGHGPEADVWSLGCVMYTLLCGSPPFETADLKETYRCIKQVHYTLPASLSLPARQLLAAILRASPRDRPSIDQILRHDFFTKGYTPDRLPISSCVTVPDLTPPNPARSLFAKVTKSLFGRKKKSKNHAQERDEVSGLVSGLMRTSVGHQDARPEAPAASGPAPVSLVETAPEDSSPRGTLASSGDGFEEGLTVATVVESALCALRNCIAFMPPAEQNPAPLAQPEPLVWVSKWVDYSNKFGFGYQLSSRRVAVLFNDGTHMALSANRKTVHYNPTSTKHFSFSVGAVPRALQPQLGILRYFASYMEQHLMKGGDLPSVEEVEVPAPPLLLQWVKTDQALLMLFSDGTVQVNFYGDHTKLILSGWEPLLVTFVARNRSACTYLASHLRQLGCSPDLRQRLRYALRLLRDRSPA

[15] = target: Casein kinase II subunit alpha (Homo sapiens, UniProt P68400); assay type: functional
Casein kinase II subunit alpha, sequence (P68400 whole entry): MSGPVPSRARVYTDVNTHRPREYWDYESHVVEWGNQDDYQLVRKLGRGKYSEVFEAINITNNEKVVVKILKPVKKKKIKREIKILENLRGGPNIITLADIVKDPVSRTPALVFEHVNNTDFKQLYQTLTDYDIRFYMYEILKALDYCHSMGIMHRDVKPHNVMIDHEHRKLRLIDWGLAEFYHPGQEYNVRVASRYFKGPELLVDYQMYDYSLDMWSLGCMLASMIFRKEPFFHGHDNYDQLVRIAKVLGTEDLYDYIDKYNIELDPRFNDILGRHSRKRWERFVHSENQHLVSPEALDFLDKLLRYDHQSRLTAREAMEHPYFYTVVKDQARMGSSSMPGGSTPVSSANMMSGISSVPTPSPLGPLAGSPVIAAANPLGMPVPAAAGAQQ

[16] = target: Mitogen-activated protein kinase 13 (Homo sapiens, UniProt O15264); assay type: functional
Mitogen-activated protein kinase 13, sequence (O15264 whole entry): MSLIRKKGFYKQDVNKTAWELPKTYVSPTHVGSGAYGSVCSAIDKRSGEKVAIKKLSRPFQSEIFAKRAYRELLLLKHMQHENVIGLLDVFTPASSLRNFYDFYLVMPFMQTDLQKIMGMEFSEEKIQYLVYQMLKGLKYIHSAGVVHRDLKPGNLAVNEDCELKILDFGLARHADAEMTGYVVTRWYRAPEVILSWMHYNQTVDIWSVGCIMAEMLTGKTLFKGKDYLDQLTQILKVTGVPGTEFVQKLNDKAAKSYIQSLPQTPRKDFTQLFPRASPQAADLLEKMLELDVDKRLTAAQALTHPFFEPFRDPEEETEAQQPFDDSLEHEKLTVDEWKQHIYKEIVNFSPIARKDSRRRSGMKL

[17] = NIH-3T3 fibroblast cytotoxicity, dose response, cytotoxicity control, cell-based, fluorescence, Alamar Blue, secondary assay (AID 2327); assay type: functional;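 note: NIH-3T3 mouse fibroblasts cultured with fluconazole at 8 µg/mL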
[18] = C. albicans growth with fluconazole, confirmation, fluorescence, retest (AID 2467); assay type: functional, cell-based
[19] = microbe, parasite or virus in culture; assay type: functional; conditions: Mycobacterium tuberculosis
[20] = target: T3, Serine/threonine-protein phosphatase (Candida dubliniensis (strain CD36 / CBS 7987 / NCPF 3949 / NRRLY-17841) (Yeast), UniProt B9W6M3); experiment: calcineurin pathway inhibitors in yeast reporter, dose response, S. cerevisiae, CDRE-lacZ, luminescence, secondary (AID 2388); assay type: functional, cell-based;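 note: yeast reporter cells carrying a calcineurin-responsive lacZ construct stimulated with calcium chloride; luminescent beta-galactosidase reporter signal in whole cells rather than isolated phosphatase activity; potency for inhibition where a drop in reporter signal means calcineurin blockade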
T3 sequence (B9W6M3 whole entry): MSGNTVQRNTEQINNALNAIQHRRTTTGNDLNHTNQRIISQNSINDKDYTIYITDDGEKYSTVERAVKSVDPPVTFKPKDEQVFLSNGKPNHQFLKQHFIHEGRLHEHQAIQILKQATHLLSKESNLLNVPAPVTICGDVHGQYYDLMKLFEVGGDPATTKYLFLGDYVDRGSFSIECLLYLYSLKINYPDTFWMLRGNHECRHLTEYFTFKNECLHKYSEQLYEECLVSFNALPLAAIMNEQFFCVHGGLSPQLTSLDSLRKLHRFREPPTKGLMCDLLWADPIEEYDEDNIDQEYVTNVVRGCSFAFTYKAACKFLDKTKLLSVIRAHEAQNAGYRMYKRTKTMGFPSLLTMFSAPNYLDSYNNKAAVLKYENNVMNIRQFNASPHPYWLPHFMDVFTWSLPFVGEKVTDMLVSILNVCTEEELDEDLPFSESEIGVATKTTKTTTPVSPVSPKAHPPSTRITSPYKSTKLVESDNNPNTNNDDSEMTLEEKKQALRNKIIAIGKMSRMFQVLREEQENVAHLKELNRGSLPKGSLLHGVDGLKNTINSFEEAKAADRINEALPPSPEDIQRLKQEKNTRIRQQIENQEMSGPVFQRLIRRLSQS

INS1 = experiment: beta cell apoptosis inhibitors, cytokine rescue, dose response, luminescence, retest (AID 449756); assay type: functional, cell-based; conditions: Rattus norvegicus;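 note: cell death triggered by IL-1 beta plus TNF-alpha plus IFN-gamma mixture; protective hits raise ATP signal compared with cytokine alone wells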
[21] = target: ATP-dependent molecular chaperone HSP82 (Candida albicans (strain WO-1) (Yeast), UniProt C4YTQ8); experiment: loss of DOC-induced GRE-beta-galactosidase reporter signal, dose response, Hsp90 inhibitor project, S. cerevisiae, luminescence (AID 2400); assay type: functional, cell-based;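 note: beta-galactosidase luminescence from glucocorticoid response element reporter as proxy for Hsp90 function; inhibitor potency where signal loss means Hsp90 inhibition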
[22] = A Cell Based Secondary Assay to Explore Cytotoxicity in THP-1 Cells of Compounds that Modulate Mycobacterium tuberculosis in Media Containing Glycerol versus Media without Glycerol (2).; assay type: functional
[23] = Vero cell cytotoxicity, cytotoxicity control for M. tuberculosis inhibitor project, purified and synthesized samples, set 3 (AID 504684); assay type: functional
[24] = A Cell Based Secondary Assay to Explore Cytotoxicity in HepG2 Cells of Compounds that Modulate Mycobacterium tuberculosis in Media Containing Glycerol versus Media without Glycerol (2).; assay type: functional

## CC[C@]12c3[nH]c4ccc(OC)cc4c3CCN1C(=O)C(CC(=O)NCc1cccc(C(F)(F)F)c1)C[C@@H]2C(=O)N1CCN(C(=O)c2ccco2)CC1 (some centres not stated)
[1]
  IC50: 20.1 µM (inactive)

## O=C(CN1CCN(CN2C(=O)NC3(CCCCCC3)C2=O)CC1)Nc1ccc(F)cc1
Insulin-degrading enzyme [2]
  EC50: > 54.7 µM (inactive)
Insulin-degrading enzyme [3]
  EC50: > 54.7 µM (inactive)
HEK293 [4]
  IC50: > 89.2 µM (inactive)
HEK293 [5]
  EC50: > 55.9 µM (inactive)

## CC(Oc1cc(-c2cnn(C3CCNCC3)c2)cnc1N)c1c(Cl)ccc(F)c1Cl (configuration not stated)
[6]
  Ki: > 2.51 µM (inactive)
[7]
  Ki: 3.16 µM (active) and 794 nM (active)

## CC(Sc1nc2ccccc2c(=O)[nH]1)C(=O)NC1CCCCC1 (configuration not stated)
[8]
  CC50: > 100 µM (active)
[9]
  CC50: > 100 µM (active)
[10]
  CC50: > 100 µM (active)

## COc1ccc(C)c(NCC(C)C(=O)O)c1 (configuration not stated)
[11]
  EC50: > 100 µM (inactive)

## c1cncc(-c2nc3sc4c(c3c3nncn23)CCCC4)c1
[12]
  IC50: > 99 µM (inactive)
[13]
  IC50: > 99 µM (inactive)

## Nc1csc(Nc2ccccc2)n1
[14]
  Ki: 2.51 µM (active)
[15]
  Ki: 10 µM (active)

## O=C(NC1CCCCC1)c1nn2c(C(F)(F)F)cc(-c3ccc(Br)cc3)nc2c1Cl
[12]
  IC50: > 99 µM (inactive)
[13]
  IC50: > 99 µM (inactive)

## CCOc1nc(NC(=O)Cc2cc(OC)ccc2OC)cc(N)c1C#N
[16]
  Ki: > 7.94 µM (inactive)

## Cc1ccc2ccc3ccc(C)nc3c2n1 [NEOCUPROINE]
[17]
  EC50: 147 µM (active)
[18]
  EC50: 0.133 µM (active)
[19]
  CC50: 36.4 µM (active)
[20]
  EC50: > 180 µM (inactive)
INS1
  AC50: < 0.195 µM (active)
[21]
  EC50: > 150 µM (inactive)
[22]
  CC50: < 0.2 µM (active)
[23]
  CC50: 1.23 µM (active)
[24]
  CC50: 0.21 µM (active)
